Experimental data from patent US8178091B2, “Compositions and methods for the treatment of respiratory disorders” (University of Washington, priority 2007, dated 2012).

System: lung fibroblasts
Assay: IGF-1 expression in lung fibroblasts
Type: cell-based
Conditions: not shown
Text: IGF-1 was implicated as a fibroblast mitogen in BALF from patients with sarcoidosis (Allen et al., Am J Respir Cell Mol Biol 19:250-258 (1998)) and systemic sclerosis (Harrison et al., Clin Sci (Lond) 86:141-148 (1994)). […] In the experiments described herein, IGF-1 mediated cell survival and migration, but not proliferation of normal lung fibroblasts through IGF-1R. The prior studies used either the fetal fibroblast cell line IMR-90 or human fetal embryonic fibroblasts (HFL-1) to examine the proliferative response (Allen et al., Am J Respir Cell Mol Biol 19:250-258 (1998); Harrison et al., Clin Sci (Lond) 86:141-148 (1994)). In contrast, the studies described herein used early passage primary adult lung fibroblasts, which may account for differences in results. In addition, the mitogenic response to IGF in the earlier studies was determined by immunodepletion of IGF from BALF (Allen et al., Am J Respir Cell Mol Biol 19:250-258 (1998); Harrison et al., Clin Sci (Lond) 86:141-148 (1994)). Without wishing to be bound by theory, it is thought that activation of fibroblasts by other growth factors or cytokines such as TGFβ1 in BALF may be necessary for the pro-proliferative effect of IGF (Scarpa et al., Peptides 26:2201-2210 (2005); Danielpour and Song, Cytokine & growth factor reviews 17:59-74 (2006)).

TGFβ1: growth factor, mediator of fibrosis
IGF-1 expression in lung fibroblasts: significantly upregulated IGF-1 expression
